Starred links: 1 amine or outer side, 2 acyl side, 3 side chain; linkers in the order of their positions; H or OH if unused. Positions of bridges follow the written chain, without caps; N, C: chain ends. Non-standard residues stand in square brackets, D forms with d. Residues, ends and D or L forms follow the SMILES beside them. X3 = O=C([C@]1(CC=[*:3])CCCN1[*:1])[*:2]; Bta = N[C@@H](Cc1csc2ccccc12)C(=O)O; tBuAla = CC(C)(C)C[C@H](N)C(=O)O; 3Thi = N[C@@H](Cc1ccsc1)C(=O)O; R5 = C=CCCC[C@@](C)(N)C(=O)O; S5 = C=CCCC[C@](C)(N)C(=O)O; Aib = CC(C)(N)C(=O)O
Target: T1, full-length beta-Catenin (Uniprot ID P35222) (Homo sapiens, UniProt P35222)
T1 construct: 10 nM full-length beta-Catenin (Uniprot ID P35222)
T1 sequence (P35222 1-781): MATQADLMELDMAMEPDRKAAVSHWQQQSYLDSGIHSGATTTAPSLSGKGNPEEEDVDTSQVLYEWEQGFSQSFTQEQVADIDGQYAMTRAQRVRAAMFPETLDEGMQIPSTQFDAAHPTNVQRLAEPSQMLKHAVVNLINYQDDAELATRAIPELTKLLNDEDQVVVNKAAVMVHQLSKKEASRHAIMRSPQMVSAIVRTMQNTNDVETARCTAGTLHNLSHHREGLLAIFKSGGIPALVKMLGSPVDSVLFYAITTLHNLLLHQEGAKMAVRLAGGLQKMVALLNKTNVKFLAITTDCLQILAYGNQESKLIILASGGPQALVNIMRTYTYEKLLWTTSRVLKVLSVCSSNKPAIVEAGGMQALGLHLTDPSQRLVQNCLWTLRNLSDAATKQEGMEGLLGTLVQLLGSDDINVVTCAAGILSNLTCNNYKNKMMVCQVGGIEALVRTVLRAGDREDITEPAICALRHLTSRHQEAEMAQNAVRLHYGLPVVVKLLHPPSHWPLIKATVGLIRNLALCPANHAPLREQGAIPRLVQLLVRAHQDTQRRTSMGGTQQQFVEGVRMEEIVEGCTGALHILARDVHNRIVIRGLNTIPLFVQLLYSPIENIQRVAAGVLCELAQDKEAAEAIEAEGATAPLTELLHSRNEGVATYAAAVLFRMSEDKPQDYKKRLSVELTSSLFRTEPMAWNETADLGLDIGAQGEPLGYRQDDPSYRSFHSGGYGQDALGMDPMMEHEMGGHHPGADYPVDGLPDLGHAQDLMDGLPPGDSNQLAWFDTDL
Experiment: Fluorescence polarization IC50 (beta-catenin / 5FAM-TCF4 10-53 competition)
Format: binding
Conditions: fluorescence polarization; read-out: beta-Catenin FP IC50

IC50 [nM] | SMILES
656 | CC(=O)N1CCC[C@]12CC=CCCCC1(CCCC=CCCCOC(=O)N3CC[C@@](C(=O)N[C@@H](Cc4ccsc4)C(=O)N[C@@H](Cc4csc5ccccc45)C(=O)N[C@@H](C)C(N)=O)(C3)NC(=O)[C@H]([C@@H](C)O)NC(=O)[C@H](Cc3ccccc3)NC(=O)[C@H](C)NC(=O)[C@H](C)NC(=O)[C@H]([C@@H](C)O)NC(=O)[C@H](CC(N)=O)NC1=O)NC(=O)[C@H](CC(C)(C)C)NC(=O)[C@H](CC(=O)O)NC2=O (stereo partly drawn) [I-2334, Ac-PL3-Asp-Npg-B5-Asn-Thr-Ala-Ala-Phe-Thr-PyrS2-3Thi-BztA-Ala-NH2]
312 | CC(=O)N1CCC[C@H]1C(=O)N[C@@H](CC(=O)O)C(=O)N[C@@H](CC(C)(C)C)C(=O)N[C@]1(C)CCCCC=CCCCOC(=O)N2CC[C@@](C(=O)N[C@@H](Cc3ccsc3)C(=O)N[C@@H](Cc3csc4ccccc34)C(=O)N[C@@H](CCC(N)=O)C(N)=O)(C2)NC(=O)[C@H](CC(C)C)NC(=O)[C@H](Cc2ccccc2)NC(=O)[C@H](C)NC(=O)[C@H](C)NC(=O)[C@H](CC(=O)O)NC(=O)[C@H](CC(=O)O)NC1=O [I-1988, Ac-Pro-Asp-Npg-R6-Asp-Asp-Ala-Ala-Phe-Leu-PyrS2-3Thi-BztA-Gln-NH2]
357 | CC(=O)N1CCC[C@]12CC=CCCCC1(CCCC=CCCCOC(=O)N3CC[C@@](C(=O)N[C@@H](Cc4ccccc4)C(=O)N[C@@H](Cc4csc5ccccc45)C(=O)N[C@@H](CCO)C(N)=O)(C3)NC(=O)[C@H](CC(N)=O)NC(=O)[C@H](Cc3ccccc3)NC(=O)[C@H](C)NC(=O)[C@H](Cc3c[nH]cn3)NC(=O)[C@H](CCC(N)=O)NC(=O)[C@H](CC(=O)O)NC1=O)NC(=O)[C@H](CC1CCCCC1)NC(=O)[C@H](CC(N)=O)NC2=O (stereo partly drawn) [I-2066, Ac-PL3-Asn-Cha-B5-Asp-Gln-His-Ala-Phe-Asn-PyrS2-Phe-BztA-Hse-NH2]
668 | CC(=O)N1CCC[C@]12CC=CCCCC1(CCCC=CCOC(=O)N(C)CC[C@@](C)(C(=O)N[C@@H](Cc3ccsc3)C(=O)N[C@@H](Cc3csc4ccccc34)C(=O)N[C@@H](CCC(N)=O)C(N)=O)NC(=O)[C@H](CC(N)=O)NC(=O)[C@H](Cc3ccccc3)NC(=O)[C@H](C)NC(=O)[C@H](C)NC(=O)[C@H](CC(=O)O)NC(=O)[C@H](CC(=O)O)NC1=O)NC(=O)[C@H](CC(C)(C)C)NC(=O)[C@H](CC(=O)O)NC2=O (stereo partly drawn) [I-1829, Ac-PL3-Asp-Npg-B5-Asp-Asp-Ala-Ala-Phe-Asn-SdN-3Thi-BztA-Gln-NH2]
183 | CC(=O)N1CCC[C@]12CC=CCCCC1(CCCC=CCCCOC(=O)N3CC(C(=O)N[C@@H](Cc4ccccc4C(F)(F)F)C(=O)N[C@@H](Cc4csc5ccccc45)C(=O)N[C@@H](CCC(N)=O)C(N)=O)(C3)NC(=O)[C@H](CC(C)C)NC(=O)[C@H](Cc3ccccc3)NC(=O)[C@H](C)NC(=O)C(C)(C)NC(=O)[C@H](Cc3cccc(C(=O)O)c3)NC(=O)[C@H](CC(=O)O)NC1=O)NC(=O)[C@H](CC(C)(C)C)NC(=O)[C@H](CC(=O)O)NC2=O (stereo partly drawn) [I-2613, Ac-PL3-Asp-Npg-B5-Asp-3COOHF-Aib-Ala-Phe-Leu-Az2-2F3MeF-BztA-Gln-NH2]
2960 | CC(=O)N[C@]1(C)CCCCCCCCC2(CCCCCCCCOC(=O)N3CC[C@@](C(=O)N[C@@H](Cc4ccccc4C(F)(F)F)C(=O)N[C@@H](Cc4csc5ccccc45)C(=O)N[C@@H](CCC(N)=O)C(N)=O)(C3)NC(=O)[C@H](CC(C)C)NC(=O)[C@H](Cc3ccccc3)NC(=O)[C@H](C)NC(=O)[C@H](C)NC(=O)[C@H](Cc3cccc(C(=O)O)c3)NC(=O)[C@H](CC(=O)O)NC2=O)NC(=O)[C@H](CC(C)(C)C)NC(=O)[C@H](CC(=O)O)NC(=O)[C@H](C)NC1=O (stereo partly drawn) [I-2574, Ac-R5-Ala-Asp-Npg-B5-Asp-3COOHF-Ala-Ala-Phe-Leu-PyrS2-2F3MeF-BztA-Gln-NH2]
512 | CC(=O)N1CCC[C@]12CC=CCCCC1(CCCC=CCCCOC(=O)N3CC[C@@](C(=O)N[C@@H](Cc4ccsc4)C(=O)N[C@@H](Cc4csc5ccccc45)C(=O)N[C@@H](CCC(N)=O)C(N)=O)(C3)NC(=O)[C@H](CC(C)C)NC(=O)[C@H](Cn3cc(CN4CCS(=O)(=O)CC4)nn3)NC(=O)[C@H](C)NC(=O)[C@H](C)NC(=O)[C@H](CN(CC(=O)O)CC(F)(F)F)NC(=O)[C@H](CC(=O)O)NC1=O)NC(=O)[C@H](CC(C)(C)C)NC(=O)[C@H](CC(=O)O)NC2=O (stereo partly drawn) [I-1860, Ac-PL3-Asp-Npg-B5-Asp-TfeGA-Ala-Ala-[SO2MorphCH2]TriAzDap-Leu-PyrS2-3Thi-BztA-Gln-NH2]

More lines, now with the values behind:

SMILES | IC50 [nM]
CC(C)C[C@@H]1NC(=O)[C@H](Cc2ccccc2)NC(=O)[C@H](C)NC(=O)[C@H](C)NC(=O)[C@H](Cc2cccc(C(=O)O)c2)NC(=O)[C@H](CC(=O)O)NC(=O)C2(CCCC=CCCCOC(=O)N3CC[C@@](C(=O)N[C@@H](Cc4ccccc4Cl)C(=O)N[C@@H](Cc4csc5ccccc45)C(=O)N[C@@H](C)C(N)=O)(C3)NC1=O)CCCC=CC[C@]1(CCCN1C(=O)OC1CCCCC1)C(=O)N[C@@H](CC(=O)O)C(=O)N[C@@H](CC(C)(C)C)C(=O)N2 (stereo partly drawn) [I-2325, CO2Hex-PL3-Asp-Npg-B5-Asp-3COOHF-Ala-Ala-Phe-Leu-PyrS2-2C1F-BztA-Ala-NH2] | 1350
CC(=O)N1CCC[C@]12CC=CCCCC1(CCCC=CCCCCC[C@@](C)(C(=O)N[C@@H](Cc3ccsc3)C(=O)N[C@@H](Cc3csc4ccccc34)C(=O)N[C@@H](CCC(N)=O)C(N)=O)NC(=O)[C@H](CC(N)=O)NC(=O)[C@H](Cc3ccccc3)NC(=O)[C@H](C)NC(=O)[C@H](C)NC(=O)[C@H](CC(=O)O)NC(=O)[C@H](CC(=O)O)NC1=O)NC(=O)[C@H](CC(C)(C)C)NC(=O)[C@H](CC(=O)O)NC2=O (stereo partly drawn) [I-1819, Ac-PL3-Asp-Npg-B5-Asp-Asp-Ala-Ala-Phe-Asn-S7-3Thi-BztA-Gln-NH2] | 615
CC(=O)N1CCC[C@]12CC=CCCCC1(CCCC=CCCCOC(=O)N3CC[C@@](C(=O)N[C@@H](Cc4ccsc4)C(=O)N[C@@H](Cc4csc5ccccc45)C(=O)N[C@@H](CCO)C(N)=O)(C3)NC(=O)[C@H](CC(C)C)NC(=O)[C@H](Cc3ccccc3)NC(=O)[C@H](C)NC(=O)[C@H](C)NC(=O)[C@H](CC(=O)O)NC(=O)[C@H](CC(=O)O)NC1=O)NC(=O)[C@H](CC(N)=O)NC(=O)[C@H](CC(=O)O)NC2=O (stereo partly drawn) [I-1518, Ac-PL3-Asp-Asn-B5-Asp-Asp-Ala-Ala-Phe-Leu-PyrS2-3Thi-BztA-Hse-NH2] | 23
CC(=O)N1CCC[C@]12CC=CCCCC1(CCCC=CCCCOC(=O)N3CC[C@@](C(=O)N[C@@H](Cc4ccccc4Cl)C(=O)N[C@@H](Cc4csc5ccccc45)C(=O)N[C@@H](CCC(N)=O)C(N)=O)(C3)NC(=O)[C@H](CO)NC(=O)[C@H](Cc3ccccc3)NC(=O)[C@H](CC(C)C)NC(=O)[C@H](C)NC(=O)[C@H](CC(=O)O)NC(=O)[C@H](CC(=O)O)NC1=O)NC(=O)[C@H](Cc1ccccc1)NC(=O)[C@H](CC(=O)O)NC2=O (stereo partly drawn) [I-1154, Ac-PL3-Asp-Phe-B5-Asp-Asp-Ala-Leu-Phe-Ser-PyrS2-2C1F-BztA-Gln-NH2] | 45
CC(=O)N1CCC[C@]12CC=CCCCC1(CCCC=CCCCOC(=O)N3CC[C@@](C(=O)N[C@@H](Cc4ccccc4)C(=O)N[C@@H](Cc4csc5ccccc45)C(=O)N[C@@H](CCC(N)=O)C(N)=O)(C3)NC(=O)[C@H](CC(C)C)NC(=O)[C@H](Cc3ccccc3)NC(=O)[C@H](C)NC(=O)[C@H](CCCCNC(C)C)NC(=O)[C@H]([C@@H](C)O)NC(=O)[C@H](CC(=O)O)NC1=O)NC(=O)[C@H](CCCCNC(C)C)NC(=O)[C@H](CC(N)=O)NC2=O (stereo partly drawn) [I-1591, Ac-PL3-Asn-iPrLys-B5-Asp-Thr-iPrLys-Ala-Phe-Leu-PyrS2-Phe-BztA-Gln-NH2] | 3110
CC(=O)N1CCC[C@]12CC=CCCC[C@@](C)(C(=O)N[C@@H](CC(=O)O)C(=O)N[C@@H](CC(=O)O)C(=O)NC(C)(C)C(=O)N[C@@H](C)C(=O)N[C@@H](Cc1ccccc1)C(=O)N[C@]1(C)CCCC=CCCC[C@@](C)(C(=O)N[C@@H](C)C(N)=O)NC(=O)[C@H](Cc3csc4ccccc34)NC(=O)[C@H](Cc3ccsc3)NC(=O)[C@H](C)NC1=O)NC(=O)[C@H](CC(C)(C)C)NC(=O)[C@H](CC(=O)O)NC2=O [I-1780, Ac-PL3-Asp-Npg-S5-Asp-Asp-Aib-Ala-Phe-R5-Ala-3Thi-BztA-S5-Ala-NH2] (Ac-[X3]D[tBuAla][S5]DD[Aib]AF[R5]A[3Thi][Bta][S5]A-NH2; staple 1-4, 10-14 (inferred)) | 4190
CC(=O)N1CCC[C@]12CC=CCCCC1(CCCC=CCCCOC(=O)N3CC[C@@](C(=O)N[C@@H](Cc4ccsc4)C(=O)N[C@@H](Cc4csc5ccccc45)C(=O)N[C@@H](CCC(N)=O)C(N)=O)(C3)NC(=O)[C@H](CC(C)C)NC(=O)[C@H](Cc3ccccc3)NC(=O)[C@H](C)NC(=O)[C@H](C)NC(=O)[C@H](Cc3c[nH]cn3)NC(=O)[C@H](CC(=O)O)NC1=O)NC(=O)[C@H](CC(C)(C)C)NC(=O)[C@H](CC(=O)O)NC2=O (stereo partly drawn) [I-1795, Ac-PL3-Asp-Npg-B5-Asp-His-Ala-Ala-Phe-Leu-PyrS2-3Thi-BztA-Gln-NH2] | 28

From patent publication US20240116985A1, “STAPLED PEPTIDES AND METHODS THEREOF” (priority 2020, published 2024)
